Measurements from PubChem BioAssay AID256 (DTP/NCI, 2004).
“And” between values parts separate entries of the source, which are not always exact repeats. Identical values can stand only once. Inconclusive results and toxic doses are left out. Rule for the calls: active = survival T/C of 150% or more; inactive = T/C below 125% in these data.

Test system: CD2F1 mice, L1210 leukemia ip, survival T/C
Assay: NCI In Vivo Anticancer Drug Screen. Data for tumor model L1210 Leukemia (intraperitoneal) in CD2F1 (CDF1) mice
Conditions: higher = longer survival
Summary of the method: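 Vehicle-treated tumor-bearing mice served as controls (C) for compound-treated mice (T). Reported figure is T divided by C.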

[1] = endpoint: mean survival time, dose: 50.0 mg/kg/injection, schedule: Q01DX009 (ip), vehicle: saline
[2] = endpoint: mean survival time, dose: 200.0 mg/kg/injection, schedule: Q01DX009 (ip), vehicle: saline
[3] = endpoint: mean survival time, dose: 100.0 mg/kg/injection, schedule: Q04DX002 (ip), vehicle: saline with Tween-80
[4] = endpoint: mean survival time, dose: 200.0 mg/kg/injection, schedule: Q04DX002 (ip), vehicle: saline with Tween-80
[5] = endpoint: mean survival time, dose: 400.0 mg/kg/injection, schedule: Q04DX002 (ip), vehicle: saline with Tween-80

Measured: T/C

CC1(C)CC(N2CCCOP2(=O)N(CCCl)CCCl)CC(C)(C)N1 (stereo not given)
inactive: endpoint: mean survival time, dose: 62.5 mg/kg/injection, schedule: Q01DX001 (ip), vehicle: water 105 % of control | endpoint: mean survival time, dose: 125.0 mg/kg/injection, schedule: Q01DX001 (ip), vehicle: water 100 % of control | endpoint: mean survival time, dose: 250.0 mg/kg/injection, schedule: Q01DX001 (ip), vehicle: water 106 % of control

CCOC(=O)CC(COC)C(Br)(C(=O)OCC)C(=O)OCC (stereo not given)
inactive: endpoint: mean survival time, dose: 1.56 mg/kg/injection, schedule: Q01DX009 (ip), vehicle: Klucel (hydroxypropylcellulose) (HPC) 104 % of control | endpoint: mean survival time, dose: 3.13 mg/kg/injection, schedule: Q01DX009 (ip), vehicle: Klucel (hydroxypropylcellulose) (HPC) 107 % of control | endpoint: mean survival time, dose: 6.25 mg/kg/injection, schedule: Q01DX009 (ip), vehicle: Klucel (hydroxypropylcellulose) (HPC) 102 % of control | endpoint: mean survival time, dose: 12.5 mg/kg/injection, schedule: Q01DX009 (ip), vehicle: Klucel (hydroxypropylcellulose) (HPC) 104 % of control | endpoint: mean survival time, dose: 25.0 mg/kg/injection, schedule: Q01DX009 (ip), vehicle: Klucel (hydroxypropylcellulose) (HPC) 104 % of control

NC1(C(=O)O)CCCC1
inactive: [1] 98 % of control and 110 % of control | endpoint: mean survival time, dose: 50.0 mg/kg/injection, schedule: Q03DX003 (ip), vehicle: saline 110 % of control | endpoint: mean survival time, dose: 50.0 mg/kg/injection, schedule: Q04DX003 (ip), vehicle: saline 96 % of control | endpoint: mean survival time, dose: 100.0 mg/kg/injection, schedule: Q03DX003 (ip), vehicle: saline 98 % of control | [2] 92 % of control and 110 % of control

O=c1[nH]c2ccccc2nc1Cl
inactive: endpoint: mean survival time, dose: 25.0 mg/kg/injection, schedule: Q04DX002 (ip), vehicle: saline with Tween-80 94 % of control | endpoint: mean survival time, dose: 50.0 mg/kg/injection, schedule: Q04DX002 (ip), vehicle: saline with Tween-80 94 % of control | [3] 94 % of control | [4] 90 % of control | [5] 90 % of control

OCC1OC(c2cccs2)C(O)C1O (stereo not given)
inactive: endpoint: median survival time, dose: 12.5 mg/kg/injection, schedule: Q01DX005 (ip), vehicle: saline 102 % of control | endpoint: median survival time, dose: 25.0 mg/kg/injection, schedule: Q01DX005 (ip), vehicle: saline 98 % of control | endpoint: median survival time, dose: 50.0 mg/kg/injection, schedule: Q01DX005 (ip), vehicle: saline 92 % of control | endpoint: median survival time, dose: 100.0 mg/kg/injection, schedule: Q01DX005 (ip), vehicle: saline 98 % of control | endpoint: median survival time, dose: 200.0 mg/kg/injection, schedule: Q01DX005 (ip), vehicle: saline 106 % of control

O=C(NC(CO)C(=O)OCc1ccccc1)OCc1ccccc1 (stereo not given)
inactive: endpoint: mean survival time, dose: 100.0 mg/kg/injection, schedule: Q01DX009 (ip), vehicle: saline with Tween-80 107 % of control | endpoint: mean survival time, dose: 200.0 mg/kg/injection, schedule: Q01DX009 (ip), vehicle: saline with Tween-80 96 % of control | endpoint: mean survival time, dose: 400.0 mg/kg/injection, schedule: Q01DX009 (ip), vehicle: saline with Tween-80 91 % of control

Cc1ccc(C2=CSc3ccccc3N2)c(C)c1
inactive: endpoint: mean survival time, dose: 100.0 mg/kg/injection, schedule: Q04DX002 (ip), vehicle: other 96 % of control | endpoint: mean survival time, dose: 200.0 mg/kg/injection, schedule: Q04DX002 (ip), vehicle: other 100 % of control | endpoint: mean survival time, dose: 400.0 mg/kg/injection, schedule: Q04DX002 (ip), vehicle: other 100 % of control

CC(=O)[C@@]12O[C@@H]1C[C@H]1[C@@H]3CCC4=CC(=O)CC[C@]4(C)[C@H]3CC[C@@]12C
inactive: [3] 96 % of control | [4] 101 % of control | [5] 96 % of control

CN(C)CC(Cl)CCl (stereo not given)
inactive: endpoint: mean survival time, dose: 12.5 mg/kg/injection, schedule: Q01DX009 (ip), vehicle: saline 98 % of control | endpoint: mean survival time, dose: 25.0 mg/kg/injection, schedule: Q01DX009 (ip), vehicle: saline 98 % of control | [1] 104 % of control | endpoint: mean survival time, dose: 100.0 mg/kg/injection, schedule: Q01DX009 (ip), vehicle: saline 105 % of control and 108 % of control | [2] 116 % of control and 101 % of control

CCC[CH2][Sn]1([CH2]CCC)[O]C(=O)c2c(Cl)c(Cl)c(Cl)c(Cl)c2C(=O)[O]1
inactive: endpoint: mean survival time, dose: 5.0 mg/kg/injection, schedule: Q01DX001 (ip), vehicle: saline 101 % of control | endpoint: mean survival time, dose: 10.0 mg/kg/injection, schedule: Q01DX001 (ip), vehicle: saline 101 % of control | endpoint: mean survival time, dose: 20.0 mg/kg/injection, schedule: Q01DX001 (ip), vehicle: saline 109 % of control

O=C(NCc1ccccc1)C1C2CCC(C2)C1C(=O)NCc1ccccc1 (stereo not given)
inactive: endpoint: mean survival time, dose: 100.0 mg/kg/injection, schedule: Q04DX003 (ip), vehicle: saline with Tween-80 102 % of control | endpoint: mean survival time, dose: 200.0 mg/kg/injection, schedule: Q04DX003 (ip), vehicle: saline with Tween-80 102 % of control | endpoint: mean survival time, dose: 400.0 mg/kg/injection, schedule: Q04DX003 (ip), vehicle: saline with Tween-80 98 % of control

CC(C)CCCC(C)C1CCC2C3CCC4=CC5(CCC4(C)C3CCC12C)SCCS5 (stereo not given)
inactive: endpoint: mean survival time, dose: 100.0 mg/kg/injection, schedule: Q01DX001 (ip), vehicle: saline with Tween-80 87 % of control | endpoint: mean survival time, dose: 200.0 mg/kg/injection, schedule: Q01DX001 (ip), vehicle: saline with Tween-80 91 % of control
